For the test, the target named is T1, CDK2/CycE (Homo sapiens, UniProt P24941).
T1 construct: GST; purchased ProQinase GmbH (Freiburg, Germany); host or cells: insect cells (Sf9)
As to the kind of experiment: CDK2/CycE kinase assay (TR-FRET). In kind it is biochemical. Particulars: avg, read-out: CDK2 avg (IC50 [mol/l]). The method, boiled down: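 GST-tagged human CDK2 and CycE from Sf9 cells, preincubated 15 min with compound, then 25 min at 22° C. with 10 μM ATP and 0.75 μM biotinylated Rb-derived peptide (final). Phospho-substrate read by TR-FRET (anti-pRB pSer807/pSer811, Eu anti-mouse IgG, streptavidin-XL665), 665/620 nm ratio, normalised to no-inhibitor and no-enzyme controls.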
In general terms: TR-FRET usually uses a lanthanide donor and a delayed reading to cut background.

The structures appear in SMILES notation. pIC50: −log10 of the molar value.

Take `Cc1nsc(Nc2cnc(C(F)(F)F)cn2)c1C(=O)Nc1ccc(F)c(OC[C@@H]2CCN(CCC(F)(F)F)C2)c1` [Example 340, N-(4-fluoro-3-{[(3R)-1-(3,3,3-trifluoropropyl)pyrrolidin-3-yl]methoxy}phenyl)-3-methyl-5-{[5-(trifluoromethyl)pyrazin-2-yl]amino}-1,2-thiazole-4-carboxamide]: the pIC50 was less than 4.70.

For `Cc1nsc(Nc2cnc(C(F)(F)F)cn2)c1C(=O)Nc1ccc(OCC2CCN(CC(F)F)CC2)nc1` [Example 345, N-(6-{[1-(2,2-difluoroethyl)piperidin-4-yl]methoxy}pyridin-3-yl)-3-methyl-5-{[5-(trifluoromethyl)pyrazin-2-yl]amino}-1,2-thiazole-4-carboxamide], the pIC50 is no more than 4.70.

On to `Cc1nsc(Nc2cnc(C(F)(F)F)cn2)c1C(=O)Nc1ccc(OCCCN(C)CCF)nc1` [Example 352, N-(6-{3-[(2-fluoroethyl)(methyl)amino]propoxy}pyridin-3-yl)-3-methyl-5-{[5-(trifluoromethyl)pyrazin-2-yl]amino}-1,2-thiazole-4-carboxamide], for which the pIC50 is no more than 4.70.

Turning to `Cc1nsc(Nc2cnc(C(F)(F)F)cn2)c1C(=O)Nc1ccc(OCC2CCCN(CC(F)(F)F)C2)nc1` (centres unmarked) [Example 326, 3-methyl-N-(6-{[1-(2,2,2-trifluoroethyl)piperidin-3-yl]methoxy}pyridin-3-yl)-5-{[5-(trifluoromethyl)pyrazin-2-yl]amino}-1,2-thiazole-4-carboxamide], the pIC50 was no more than 4.70.

With `Cc1nsc(Nc2cnc(C(F)(F)F)cn2)c1C(=O)Nc1ccc(O[C@@H]2CCN(CCC(F)(F)F)C2)nc1` [Example 381, 3-methyl-5-{[5-(trifluoromethyl)pyrazin-2-yl]amino}-N-(6-{[(3R)-1-(3,3,3-trifluoropropyl)pyrrolidin-3-yl]oxy}pyridin-3-yl)-1,2-thiazole-4-carboxamide], the pIC50 is less than 4.70.

Turning to `Cc1nsc(Nc2cnc(C(F)(F)F)cn2)c1C(=O)Nc1ccc(OCCCN(C)CC(F)(F)F)nc1` [Example 354, 3-methyl-N-(6-{3-[methyl(2,2,2-trifluoroethyl)amino]propoxy}pyridin-3-yl)-5-{[5-(trifluoromethyl)pyrazin-2-yl]amino}-1,2-thiazole-4-carboxamide], the pIC50 is no more than 4.70.

With `CCN1CC[C@@H](Oc2ccc(NC(=O)c3c(C)nsc3Nc3cnc(C(F)(F)F)cn3)cn2)[C@H](F)C1` [Example 369, N-(6-{[(3R,4R)-1-ethyl-3-fluoropiperidin-4-yl]oxy}pyridin-3-yl)-3-methyl-5-{[5-(trifluoromethyl)pyrazin-2-yl]amino}-1,2-thiazole-4-carboxamide], the pIC50 is less than 4.70.

On to `Cc1nsc(Nc2cnc(C(F)(F)F)cn2)c1C(=O)Nc1ccc(O[C@H]2CCN(CC(F)(F)F)C2)nc1` [Example 383, 3-methyl-N-(6-{[(3S)-1-(2,2,2-trifluoroethyl)pyrrolidin-3-yl]oxy}pyridin-3-yl)-5-{[5-(trifluoromethyl)pyrazin-2-yl]amino}-1,2-thiazole-4-carboxamide], for which the pIC50 is less than 4.70.

Take `Cc1nsc(Nc2cnc(C(F)(F)F)cn2)c1C(=O)Nc1ccc(N2CCN(CC(F)F)CC2)cn1` [Example 372, N-{5-[4-(2,2-difluoroethyl)piperazin-1-yl]pyridin-2-yl}-3-methyl-5-{[5-(trifluoromethyl)pyrazin-2-yl]amino}-1,2-thiazole-4-carboxamide]: the pIC50 is less than 4.70.

For the compound `Cc1nsc(Nc2cnc(C(F)(F)F)cn2)c1C(=O)Nc1ccc(F)c(OCC2CCCN(CC(F)(F)F)C2)c1` (centres unmarked) [Example 337, N-(4-fluoro-3-{[1-(2,2,2-trifluoroethyl)piperidin-3-yl]methoxy}phenyl)-3-methyl-5-{[5-(trifluoromethyl)pyrazin-2-yl]amino}-1,2-thiazole-4-carboxamide], the pIC50 was no more than 4.70.

Consider `Cc1nsc(Nc2cnc(C(F)(F)F)cn2)c1C(=O)Nc1ccc(N2CCN(CC(F)F)CC2)nc1` [Example 359, N-{6-[4-(2,2-difluoroethyl)piperazin-1-yl]pyridin-3-yl}-3-methyl-5-{[5-(trifluoromethyl)pyrazin-2-yl]amino}-1,2-thiazole-4-carboxamide], for which the pIC50 was less than 4.70.

In the case of `Cc1nsc(Nc2cnc(C(F)(F)F)cn2)c1C(=O)Nc1ccc(O[C@H]2CCCN(CC(F)(F)F)C2)nc1` [Example 389, 3-methyl-N-(6-{[(3S)-1-(2,2,2-trifluoroethyl)piperidin-3-yl]oxy}pyridin-3-yl)-5-{[5-(trifluoromethyl)pyrazin-2-yl]amino}-1,2-thiazole-4-carboxamide], the pIC50 was less than 4.70.

Regarding `Cc1nsc(Nc2cnc(C(F)(F)F)cn2)c1C(=O)Nc1ccc(OCC2CCCN(CCF)C2)nc1` (centres unmarked) [Example 325, N-(6-{[1-(2-fluoroethyl)piperidin-3-yl]methoxy}pyridin-3-yl)-3-methyl-5-{[5-(trifluoromethyl)pyrazin-2-yl]amino}-1,2-thiazole-4-carboxamide], the pIC50 was no more than 4.70.

For the compound `Cc1nsc(Nc2cnc(C(F)(F)F)cn2)c1C(=O)Nc1ccc(OCC2CCN(CCF)CC2)nc1` [Example 344, N-(6-{[1-(2-fluoroethyl)piperidin-4-yl]methoxy}pyridin-3-yl)-3-methyl-5-{[5-(trifluoromethyl)pyrazin-2-yl]amino}-1,2-thiazole-4-carboxamide], the pIC50 was no more than 4.70.

In the case of `Cc1nsc(Nc2cnc(C(F)(F)F)cn2)c1C(=O)Nc1ccc(O[C@@H]2CCN(CC(F)(F)F)C2)nc1` [Example 380, 3-methyl-N-(6-{[(3R)-1-(2,2,2-trifluoroethyl)pyrrolidin-3-yl]oxy}pyridin-3-yl)-5-{[5-(trifluoromethyl)pyrazin-2-yl]amino}-1,2-thiazole-4-carboxamide], the pIC50 is less than 4.70.

`Cc1nsc(Nc2cnc(C(F)(F)F)cn2)c1C(=O)Nc1ccc(F)c(OC[C@@H]2CCCN(CC(F)F)C2)c1` [Example 341, N-(3-{[(3R)-1-(2,2-difluoroethyl)piperidin-3-yl]methoxy}-4-fluorophenyl)-3-methyl-5-{[5-(trifluoromethyl)pyrazin-2-yl]amino}-1,2-thiazole-4-carboxamide]: the pIC50 was less than 4.70.

Regarding `Cc1nsc(Nc2cnc(C(F)(F)F)cn2)c1C(=O)Nc1ccc(OCCCN(C)CCC(F)(F)F)nc1` [Example 355, 3-methyl-N-(6-{3-[methyl(3,3,3-trifluoropropyl)amino]propoxy}pyridin-3-yl)-5-{[5-(trifluoromethyl)pyrazin-2-yl]amino}-1,2-thiazole-4-carboxamide], the pIC50 was no more than 4.70.

`Cc1nsc(Nc2cnc(C(F)(F)F)cn2)c1C(=O)Nc1ccc(OCC2CCCN(CCC(F)(F)F)C2)nc1` (centres unmarked) [Example 328, 3-methyl-5-{[5-(trifluoromethyl)pyrazin-2-yl]amino}-N-(6-{[1-(3,3,3-trifluoropropyl)piperidin-3-yl]methoxy}pyridin-3-yl)-1,2-thiazole-4-carboxamide]: the pIC50 is no more than 4.70.

On to `Cc1nsc(Nc2ccc(C#N)cn2)c1C(=O)Nc1ccc(OC2CCN(CC(F)(F)F)CC2)nc1` [Example 30, 5-[(5-Cyanopyridin-2-yl)amino]-3-methyl-N-(6-{[1-(2,2,2-trifluoroethyl)piperidin-4-yl]oxy}pyridin-3-yl)-1,2-thiazole-4-carboxamide], for which the pIC50 was no more than 4.70.

With `Cc1nsc(Nc2cnc(C(F)(F)F)cn2)c1C(=O)Nc1ccc(OCC2CCN(CCC(F)(F)F)CC2)nc1` [Example 347, 3-methyl-5-{[5-(trifluoromethyl)pyrazin-2-yl]amino}-N-(6-{[1-(3,3,3-trifluoropropyl)piperidin-4-yl]methoxy}pyridin-3-yl)-1,2-thiazole-4-carboxamide], the pIC50 is no more than 4.70.

For `Cc1nsc(Nc2cnc(C(F)(F)F)cn2)c1C(=O)Nc1ccc(O[C@H]2CCN(CC(F)F)C2)nc1` [Example 382, N-(6-{[(3S)-1-(2,2-difluoroethyl)pyrrolidin-3-yl]oxy}pyridin-3-yl)-3-methyl-5-{[5-(trifluoromethyl)pyrazin-2-yl]amino}-1,2-thiazole-4-carboxamide], the pIC50 was less than 4.70.

`Cc1nsc(Nc2cnc(C(F)(F)F)cn2)c1C(=O)Nc1ccc(O[C@H]2CCCN(CCC(F)(F)F)C2)nc1` [Example 390, 3-methyl-5-{[5-(trifluoromethyl)pyrazin-2-yl]amino}-N-(6-{[(3S)-1-(3,3,3-trifluoropropyl)piperidin-3-yl]oxy}pyridin-3-yl)-1,2-thiazole-4-carboxamide]: the pIC50 is less than 4.70.

For `Cc1nsc(Nc2cnc(C(F)(F)F)cn2)c1C(=O)Nc1ccc(F)c(OC[C@@H]2CCN(CC(F)(F)F)C2)c1` [Example 339, N-(4-fluoro-3-{[(3R)-1-(2,2,2-trifluoroethyl)pyrrolidin-3-yl]methoxy}phenyl)-3-methyl-5-{[5-(trifluoromethyl)pyrazin-2-yl]amino}-1,2-thiazole-4-carboxamide], the pIC50 was less than 4.70.

`Cc1nsc(Nc2cnc(C(F)(F)F)cn2)c1C(=O)Nc1ccc(OC2CCCN(CC(F)F)C2)nc1` (centres unmarked) [Example 330, N-(6-{[1-(2,2-difluoroethyl)piperidin-3-yl]oxy}pyridin-3-yl)-3-methyl-5-{[5-(trifluoromethyl)pyrazin-2-yl]amino}-1,2-thiazole-4-carboxamide]: the pIC50 is no more than 4.70.

Regarding `CCN1CC[C@H](Oc2ccc(NC(=O)c3c(C)nsc3Nc3cnc(C(F)(F)F)cn3)cn2)[C@@H](F)C1` [Example 365, N-(6-{[(3S,4S)-1-ethyl-3-fluoropiperidin-4-yl]oxy}pyridin-3-yl)-3-methyl-5-{[5-(trifluoromethyl)pyrazin-2-yl]amino}-1,2-thiazole-4-carboxamide], the pIC50 was less than 4.70.

Regarding `CCCN1CC[C@H](Oc2ccc(NC(=O)c3c(C)nsc3Nc3cnc(C(F)(F)F)cn3)cn2)[C@@H](F)C1` [Example 370, N-(6-{[(3S,4S)-3-fluoro-1-propylpiperidin-4-yl]oxy}pyridin-3-yl)-3-methyl-5-{[5-(trifluoromethyl)pyrazin-2-yl]amino}-1,2-thiazole-4-carboxamide], the pIC50 was less than 4.70.
